# Patent US4542137A, “Alkylaminodesoxy-1.4;3.6-dianhydrohexitol nitrates substituted by purine bases and pharmaceutical compositions” (priority 1980, dated 1985)
# System: mongrel dogs
# Test: circulatory pharmacological effectiveness on narcotised dogs, intravenous
# Type: in vivo, dog
# Details: dog i.v. ISDN/9c 1, 1d 0.5 mg/kg
compound,measurement,setting,value
"CN(CCCn1cnc2c1c(=O)n(C)c(=O)n2C)[C@H]1CO[C@H]2[C@@H]1OC[C@@H]2O[N+](=O)[O-] [Example 9c, 5-[N-Methyl-N-(3-theophyllin-7-ylpropyl)-amino]-5-desoxy-1.4;3.6-dianhydro-L-iditol 2-nitrate]",APdiast: diastolic aorta pressure,2 min,58.1 mm.Hg
same,APsyst: systolic aorta pressure,2 min,105.0 mm.Hg
same,BFFem: blood flow in the A. femoralis referred to 20 kg body weight,2 min,34.6 mL/min
same,HF: heart frequency,2 min,163.2
same,"HLL: heart capacity left, referred to 20 kg body weight",2 min,0.51 W
same,"HLR: heart capacity right, referred to 20 kg body weight",2 min,67.6 mW
same,"HZV: heart minute volume, referred to 20 kg body weight",2 min,3.15 L/min
same,LVEDP: end diastolic pressure in the left ventricle,2 min,3.60 mm.Hg
same,"SV: beat volume, referred to 20 kg body weight",2 min,20.0 mL
same,"WAP: pulmonalis resistance, referred to 20 kg body weight",2 min,0.30 U
same,"WFem: moralis resistance, referred to 20 kg body weight",2 min,0.33 KU
same,"WTP: total peripheral resistance, referred to 20 kg body weight",2 min,3.07 U
same,dp/dt: rate of pressure increase in the left ventricle,2 min,3045.0 mm.Hg/sec
same,APdiast: diastolic aorta pressure,5 min,79.7 mm.Hg
same,APsyst: systolic aorta pressure,5 min,126.6 mm.Hg
same,BFFem: blood flow in the A. femoralis referred to 20 kg body weight,5 min,39.1 mL/min
same,HF: heart frequency,5 min,129.7
same,"HLL: heart capacity left, referred to 20 kg body weight",5 min,0.56 W
same,"HLR: heart capacity right, referred to 20 kg body weight",5 min,66.9 mW
same,"HZV: heart minute volume, referred to 20 kg body weight",5 min,2.73 L/min
same,LVEDP: end diastolic pressure in the left ventricle,5 min,4.64 mm.Hg
same,"SV: beat volume, referred to 20 kg body weight",5 min,21.1 mL
same,"WAP: pulmonalis resistance, referred to 20 kg body weight",5 min,0.33 U
same,"WFem: moralis resistance, referred to 20 kg body weight",5 min,0.37 KU
same,dp/dt: rate of pressure increase in the left ventricle,5 min,2287.5 mm.Hg/sec
same,APdiast: diastolic aorta pressure,7 min,82.5 mm.Hg
same,APsyst: systolic aorta pressure,7 min,129.4 mm.Hg
same,BFFem: blood flow in the A. femoralis referred to 20 kg body weight,7 min,42.5 mL/min
same,HF: heart frequency,7 min,123.2
same,"HLL: heart capacity left, referred to 20 kg body weight",7 min,0.58 W
same,"HLR: heart capacity right, referred to 20 kg body weight",7 min,64.2 mW
same,"HZV: heart minute volume, referred to 20 kg body weight",7 min,2.75 L/min
same,LVEDP: end diastolic pressure in the left ventricle,7 min,4.92 mm.Hg
same,"SV: beat volume, referred to 20 kg body weight",7 min,22.4 mL
same,"WFem: moralis resistance, referred to 20 kg body weight",7 min,0.34 KU
same,"WTP: total peripheral resistance, referred to 20 kg body weight",7 min,4.77 U
same,dp/dt: rate of pressure increase in the left ventricle,7 min,2325.0 mm.Hg/sec
same,APdiast: diastolic aorta pressure,10 min,81.6 mm.Hg
same,APsyst: systolic aorta pressure,10 min,127.5 mm.Hg
same,HF: heart frequency,10 min,120.5
same,"HLL: heart capacity left, referred to 20 kg body weight",10 min,0.57 W
same,"HLR: heart capacity right, referred to 20 kg body weight",10 min,68.8 mW
same,"HZV: heart minute volume, referred to 20 kg body weight",10 min,2.76 L/min
same,LVEDP: end diastolic pressure in the left ventricle,10 min,4.92 mm.Hg
same,"SV: beat volume, referred to 20 kg body weight",10 min,23.0 mL
same,"WAP: pulmonalis resistance, referred to 20 kg body weight",10 min,0.32 U
same,"WFem: moralis resistance, referred to 20 kg body weight",10 min,0.32 KU
same,"WTP: total peripheral resistance, referred to 20 kg body weight",10 min,4.68 U
same,APdiast: diastolic aorta pressure,15 min,81.6 mm.Hg
same,APsyst: systolic aorta pressure,15 min,128.4 mm.Hg
same,BFFem: blood flow in the A. femoralis referred to 20 kg body weight,15 min,43.4 mL/min
same,HF: heart frequency,15 min,115.2
same,"HLL: heart capacity left, referred to 20 kg body weight",15 min,0.57 W
same,"HLR: heart capacity right, referred to 20 kg body weight",15 min,63.6 mW
same,"HZV: heart minute volume, referred to 20 kg body weight",15 min,2.77 L/min
same,LVEDP: end diastolic pressure in the left ventricle,15 min,5.20 mm.Hg
same,"SV: beat volume, referred to 20 kg body weight",15 min,24.2 mL
same,"WAP: pulmonalis resistance, referred to 20 kg body weight",15 min,0.30 U
same,"WFem: moralis resistance, referred to 20 kg body weight",15 min,0.31 KU
same,"WTP: total peripheral resistance, referred to 20 kg body weight",15 min,4.65 U
same,dp/dt: rate of pressure increase in the left ventricle,15 min,2250.0 mm.Hg/sec
same,APdiast: diastolic aorta pressure,20 min,82.5 mm.Hg
same,APsyst: systolic aorta pressure,20 min,128.4 mm.Hg
same,BFFem: blood flow in the A. femoralis referred to 20 kg body weight,20 min,44.2 mL/min
same,HF: heart frequency,20 min,114.5
same,"HLL: heart capacity left, referred to 20 kg body weight",20 min,0.55 W
same,"HLR: heart capacity right, referred to 20 kg body weight",20 min,63.1 mW
same,"HZV: heart minute volume, referred to 20 kg body weight",20 min,2.65 L/min
same,LVEDP: end diastolic pressure in the left ventricle,20 min,5.48 mm.Hg
same,"SV: beat volume, referred to 20 kg body weight",20 min,23.3 mL
same,"WAP: pulmonalis resistance, referred to 20 kg body weight",20 min,0.30 U
same,"WFem: moralis resistance, referred to 20 kg body weight",20 min,0.31 KU
same,"WTP: total peripheral resistance, referred to 20 kg body weight",20 min,4.90 U
same,dp/dt: rate of pressure increase in the left ventricle,20 min,2221.9 mm.Hg/sec
same,APdiast: diastolic aorta pressure,25 min,83.4 mm.Hg
same,APsyst: systolic aorta pressure,25 min,131.2 mm.Hg
same,BFFem: blood flow in the A. femoralis referred to 20 kg body weight,25 min,41.3 mL/min
same,"HLL: heart capacity left, referred to 20 kg body weight",25 min,0.56 W
same,"HLR: heart capacity right, referred to 20 kg body weight",25 min,60.5 mW
same,"HZV: heart minute volume, referred to 20 kg body weight",25 min,2.65 L/min
same,LVEDP: end diastolic pressure in the left ventricle,25 min,5.62 mm.Hg
same,"SV: beat volume, referred to 20 kg body weight",25 min,23.7 mL
same,"WAP: pulmonalis resistance, referred to 20 kg body weight",25 min,0.27 U
same,"WFem: moralis resistance, referred to 20 kg body weight",25 min,0.33 KU
same,"WTP: total peripheral resistance, referred to 20 kg body weight",25 min,5.00 U
same,dp/dt: rate of pressure increase in the left ventricle,25 min,2221.9 mm.Hg/sec
same,APdiast: diastolic aorta pressure,30 min,81.6 mm.Hg
same,APsyst: systolic aorta pressure,30 min,134.1 mm.Hg
same,BFFem: blood flow in the A. femoralis referred to 20 kg body weight,30 min,44.2 mL/min
same,HF: heart frequency,30 min,111.5
same,"HLL: heart capacity left, referred to 20 kg body weight",30 min,0.57 W
same,"HLR: heart capacity right, referred to 20 kg body weight",30 min,60.5 mW
same,"HZV: heart minute volume, referred to 20 kg body weight",30 min,2.68 L/min
same,LVEDP: end diastolic pressure in the left ventricle,30 min,5.62 mm.Hg
same,"SV: beat volume, referred to 20 kg body weight",30 min,24.2 mL
same,"WFem: moralis resistance, referred to 20 kg body weight",30 min,0.31 KU
same,"WTP: total peripheral resistance, referred to 20 kg body weight",30 min,4.87 U
same,dp/dt: rate of pressure increase in the left ventricle,30 min,2221.9 mm.Hg/sec
same,APdiast: diastolic aorta pressure,40 min,86.2 mm.Hg
same,APsyst: systolic aorta pressure,40 min,136.9 mm.Hg
